Measured values published in ChEMBL document CHEMBL5316328, “Discovery of AXL Degraders with Improved Potencies in Triple-Negative Breast Cancer (TNBC) Cells” (J Med Chem, 2023).
pIC50: −log10 of the molar value. Calls of active or inactive are those of the source. The rule behind the calls is not given here.

Tests used:
Homo sapiens = species: Homo sapiens; assay: Antitumor activity against patient-derived breast cancer organoid assessed as phenotypic change at 5 uM incubated for 120 hrs by bright-field imaging microscopic analysis; type: functional, tissue-based
[1] = Antitumor activity against patient-derived breast cancer organoid assessed as reduction in cell viability incubated for 120 hrs by CellTiter-Glo 3D assay; type: functional, tissue-based; conditions: Homo sapiens
MDA-MB-231 [2] = assay: Antiproliferative activity against human MDA-MB-231 cells expressing AXL assessed as inhibition of cell growth incubated for 72 hrs by CCK8 assay; type: functional, cell-based; conditions: MDA-MB-231, 72 h
MDA-MB-436 = assay: Antiproliferative activity against human MDA-MB-436 cells expressing AXL assessed as inhibition of cell growth incubated for 72 hrs by CCK8 assay; type: functional, cell-based; conditions: MDA-MB-436, 72 h
MDA-MB-453 = assay: Antiproliferative activity against human MDA-MB-453 cells assessed as inhibition of cell growth incubated for 72 hrs by CCK8 assay; type: functional, cell-based; conditions: MDA-MB-453, 72 h
[3] = target: ALK tyrosine kinase receptor (Homo sapiens, UniProt Q9UM73); assay: Inhibition of ALK (unknown origin)
MDA-MB-231 [4] = assay: Induction of cell cycle arrest in human MDA-MB-231 cells assessed as G0/G1 phase cells at 33.3 nM incubated for 24 hrs by PI staining based flow cytometric analysis (reference value: 63.32 to 64.94%); type: functional
MDA-MB-231 [5] = assay: Induction of cell cycle arrest in human MDA-MB-231 cells assessed as S phase cells at 33.3 nM incubated for 24 hrs by PI staining based flow cytometric analysis (reference value: 9.64 to 10.79%); type: functional
MDA-MB-231 [6] = assay: Induction of cell cycle arrest in human MDA-MB-231 cells assessed as accumulation of cell at G2/M phase at 33.3 nM incubated for 24 hrs by PI staining based flow cytometric analysis (reference value: 24.34 to 24.44%); type: functional
MDA-MB-231 [7] = assay: Induction of cell cycle arrest in human MDA-MB-231 cells assessed as G0/G1 phase cells at 100 nM incubated for 24 hrs by PI staining based flow cytometric analysis (reference value: 63.32 to 64.94%); type: functional
MDA-MB-231 [8] = assay: Induction of cell cycle arrest in human MDA-MB-231 cells assessed as S phase cells at 100 nM incubated for 24 hrs by PI staining based flow cytometric analysis (reference value: 9.64 to 10.79%); type: functional
MDA-MB-231 [9] = assay: Induction of cell cycle arrest in human MDA-MB-231 cells assessed as accumulation of cell at G2/M phase at 100 nM incubated for 24 hrs by PI staining based flow cytometric analysis (reference value: 24.34 to 24.44%); type: functional
MDA-MB-231 [10] = assay: Induction of cell cycle arrest in human MDA-MB-231 cells assessed as G0/G1 phase cells at 300 nM incubated for 24 hrs by PI staining based flow cytometric analysis (reference value: 63.32 to 64.94%); type: functional
MDA-MB-231 [11] = assay: Induction of cell cycle arrest in human MDA-MB-231 cells assessed as S phase cells at 300 nM incubated for 24 hrs by PI staining based flow cytometric analysis (reference value: 9.64 to 10.79%); type: functional
MDA-MB-231 [12] = assay: Induction of cell cycle arrest in human MDA-MB-231 cells assessed as accumulation of cell at G2/M phase at 300 nM incubated for 24 hrs by PI staining based flow cytometric analysis (reference value: 24.34 to 24.44%); type: functional
[13] = target: Serine/threonine-protein kinase AKT (Homo sapiens) (UniProt P31751+Q9Y243+P31749); assay: Inhibition of AKT phosphorylation in human MDA-MB-231 at 1.2 to 100 nM incubated for 18 hrs by Western blot analysis; type: cell-based; conditions: dose 1.2-100 nM
MDA-MB-231 [14] = assay: Induction of apoptosis in human MDA-MB-231 cells assessed as viable cells at 33.3 nM incubated for 48 hrs by Annexin V-PE staining based flow cytometric analysis (reference value: 92.59 to 92.71%); type: functional; conditions: read-out: Activity
MDA-MB-231 [15] = assay: Induction of apoptosis in human MDA-MB-231 cells assessed as necrotic cells at 33.3 nM incubated for 48 hrs by Annexin V-PE staining based flow cytometric analysis (reference value: 2.64 to 3.23%); type: functional
MDA-MB-231 [16] = assay: Induction of apoptosis in human MDA-MB-231 cells assessed as early apoptotic cells at 33.3 nM incubated for 48 hrs by Annexin V-PE staining based flow cytometric analysis (reference value: 3.95 to 3.74%); type: functional
MDA-MB-231 [17] = assay: Induction of apoptosis in human MDA-MB-231 cells assessed as late apoptotic cells at 33.3 nM incubated for 48 hrs by Annexin V-PE staining based flow cytometric analysis (reference value: 0.32 to 0.82%); type: functional
MDA-MB-231 [18] = assay: Induction of apoptosis in human MDA-MB-231 cells assessed as viable cells at 100 nM incubated for 48 hrs by Annexin V-PE staining based flow cytometric analysis (reference value: 92.59 to 92.71%); type: functional; conditions: read-out: Activity
MDA-MB-231 [19] = assay: Induction of apoptosis in human MDA-MB-231 cells assessed as early apoptotic cells at 100 nM incubated for 48 hrs by Annexin V-PE staining based flow cytometric analysis (reference value: 3.95 to 3.74%); type: functional
MDA-MB-231 [20] = assay: Induction of apoptosis in human MDA-MB-231 cells assessed as late apoptotic cells at 100 nM incubated for 48 hrs by Annexin V-PE staining based flow cytometric analysis (reference value: 0.32 to 0.82%); type: functional
MDA-MB-231 [21] = assay: Induction of apoptosis in human MDA-MB-231 cells assessed as necrotic cells at 100 nM incubated for 48 hrs by Annexin V-PE staining based flow cytometric analysis (reference value: 2.64 to 3.23%); type: functional
MDA-MB-231 [22] = assay: Induction of apoptosis in human MDA-MB-231 cells assessed as viable cells at 300 nM incubated for 48 hrs by Annexin V-PE staining based flow cytometric analysis (reference value: 92.59 to 92.71%); type: functional; conditions: read-out: Activity
MDA-MB-231 [23] = assay: Induction of apoptosis in human MDA-MB-231 cells assessed as early apoptotic cells at 300 nM incubated for 48 hrs by Annexin V-PE staining based flow cytometric analysis (reference value: 3.95 to 3.74%); type: functional
MDA-MB-231 [24] = assay: Induction of apoptosis in human MDA-MB-231 cells assessed as late apoptotic cells at 300 nM incubated for 48 hrs by Annexin V-PE staining based flow cytometric analysis (reference value: 0.32 to 0.82%); type: functional
MDA-MB-231 [25] = assay: Induction of apoptosis in human MDA-MB-231 cells assessed as necrotic cells at 300 nM incubated for 48 hrs by Annexin V-PE staining based flow cytometric analysis (reference value: 2.64 to 3.23%); type: functional
MDA-MB-231 [26] = assay: Induction of cell cycle arrest in human MDA-MB-231 cells assessed as decrease in CDK2 level at 100 to 300 nM by Western blot analysis; type: functional, cell-based; conditions: dose 100-300 nM
MDA-MB-231 [27] = assay: Induction of cell cycle arrest in human MDA-MB-231 cells assessed as decrease in cyclin B1 level at 100 to 300 nM by Western blot analysis; type: functional, cell-based; conditions: dose 100-300 nM
MDA-MB-231 [28] = assay: Induction of apoptosis in human MDA-MB-231 cells assessed as downregulation of caspase-9 expression at 100 to 300 nM by Western blot analysis; type: functional, cell-based; conditions: dose 100-300 nM
MDA-MB-231 [29] = assay: Induction of apoptosis in human MDA-MB-231 cells assessed as upregulation of cleaved PARP expression at 100 to 300 nM by Western blot analysis; type: functional, cell-based; conditions: dose 100-300 nM
MDA-MB-231 [30] = assay: Inhibition of migration in human MDA-MB-231 cells at 3.7 to 100 nM incubated for 18 hrs by transwell assay; type: functional, cell-based; conditions: dose 3.7-100 nM
MDA-MB-231 [31] = assay: Inhibition of cell invasion in human MDA-MB-231 cells at 3.7 to 100 nM incubated for 18 hrs by transwell assay; type: functional, cell-based; conditions: dose 3.7-100 nM

Serine/threonine-protein kinase AKT (Homo sapiens), sequence (P31749 whole entry, looked up): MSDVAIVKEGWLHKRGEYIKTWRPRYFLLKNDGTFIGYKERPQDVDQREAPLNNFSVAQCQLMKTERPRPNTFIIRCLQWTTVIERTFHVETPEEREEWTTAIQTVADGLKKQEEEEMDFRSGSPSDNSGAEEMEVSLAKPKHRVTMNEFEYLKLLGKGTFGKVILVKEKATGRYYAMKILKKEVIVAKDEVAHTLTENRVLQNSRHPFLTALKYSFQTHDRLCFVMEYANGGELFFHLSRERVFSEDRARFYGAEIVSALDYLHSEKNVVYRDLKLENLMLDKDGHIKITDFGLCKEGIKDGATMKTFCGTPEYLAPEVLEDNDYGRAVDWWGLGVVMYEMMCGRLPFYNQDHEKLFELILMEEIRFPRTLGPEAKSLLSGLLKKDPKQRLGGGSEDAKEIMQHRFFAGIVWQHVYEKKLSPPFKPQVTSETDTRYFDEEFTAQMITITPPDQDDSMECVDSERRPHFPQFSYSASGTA
Serine/threonine-protein kinase AKT (Homo sapiens), sequence (P31751 whole entry, looked up): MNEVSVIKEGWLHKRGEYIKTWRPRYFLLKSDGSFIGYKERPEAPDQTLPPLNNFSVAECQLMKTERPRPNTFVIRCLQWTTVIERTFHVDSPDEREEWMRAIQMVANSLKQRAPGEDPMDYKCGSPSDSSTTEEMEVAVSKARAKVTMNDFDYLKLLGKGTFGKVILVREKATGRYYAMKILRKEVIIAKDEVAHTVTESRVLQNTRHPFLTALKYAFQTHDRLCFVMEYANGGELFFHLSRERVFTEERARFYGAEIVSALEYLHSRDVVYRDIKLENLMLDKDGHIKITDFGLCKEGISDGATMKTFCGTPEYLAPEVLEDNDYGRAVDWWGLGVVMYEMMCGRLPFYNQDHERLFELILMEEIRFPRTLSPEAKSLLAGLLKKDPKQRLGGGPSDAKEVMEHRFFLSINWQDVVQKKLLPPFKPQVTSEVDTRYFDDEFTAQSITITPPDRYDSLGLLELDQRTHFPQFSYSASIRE
Serine/threonine-protein kinase AKT (Homo sapiens), sequence (Q9Y243 whole entry, looked up): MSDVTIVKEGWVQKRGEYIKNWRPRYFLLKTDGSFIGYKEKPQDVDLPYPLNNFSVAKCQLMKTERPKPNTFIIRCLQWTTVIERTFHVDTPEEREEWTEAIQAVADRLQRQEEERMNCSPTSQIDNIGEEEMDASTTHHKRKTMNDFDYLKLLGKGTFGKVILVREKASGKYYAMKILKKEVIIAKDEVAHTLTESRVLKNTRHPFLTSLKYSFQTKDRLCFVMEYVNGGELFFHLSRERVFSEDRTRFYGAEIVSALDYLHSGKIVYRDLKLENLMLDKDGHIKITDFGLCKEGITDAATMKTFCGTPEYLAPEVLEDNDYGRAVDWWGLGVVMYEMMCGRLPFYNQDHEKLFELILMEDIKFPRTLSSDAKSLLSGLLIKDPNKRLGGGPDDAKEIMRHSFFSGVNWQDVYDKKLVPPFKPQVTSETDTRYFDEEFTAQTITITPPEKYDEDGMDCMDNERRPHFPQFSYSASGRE
ALK tyrosine kinase receptor, sequence (Q9UM73 whole entry): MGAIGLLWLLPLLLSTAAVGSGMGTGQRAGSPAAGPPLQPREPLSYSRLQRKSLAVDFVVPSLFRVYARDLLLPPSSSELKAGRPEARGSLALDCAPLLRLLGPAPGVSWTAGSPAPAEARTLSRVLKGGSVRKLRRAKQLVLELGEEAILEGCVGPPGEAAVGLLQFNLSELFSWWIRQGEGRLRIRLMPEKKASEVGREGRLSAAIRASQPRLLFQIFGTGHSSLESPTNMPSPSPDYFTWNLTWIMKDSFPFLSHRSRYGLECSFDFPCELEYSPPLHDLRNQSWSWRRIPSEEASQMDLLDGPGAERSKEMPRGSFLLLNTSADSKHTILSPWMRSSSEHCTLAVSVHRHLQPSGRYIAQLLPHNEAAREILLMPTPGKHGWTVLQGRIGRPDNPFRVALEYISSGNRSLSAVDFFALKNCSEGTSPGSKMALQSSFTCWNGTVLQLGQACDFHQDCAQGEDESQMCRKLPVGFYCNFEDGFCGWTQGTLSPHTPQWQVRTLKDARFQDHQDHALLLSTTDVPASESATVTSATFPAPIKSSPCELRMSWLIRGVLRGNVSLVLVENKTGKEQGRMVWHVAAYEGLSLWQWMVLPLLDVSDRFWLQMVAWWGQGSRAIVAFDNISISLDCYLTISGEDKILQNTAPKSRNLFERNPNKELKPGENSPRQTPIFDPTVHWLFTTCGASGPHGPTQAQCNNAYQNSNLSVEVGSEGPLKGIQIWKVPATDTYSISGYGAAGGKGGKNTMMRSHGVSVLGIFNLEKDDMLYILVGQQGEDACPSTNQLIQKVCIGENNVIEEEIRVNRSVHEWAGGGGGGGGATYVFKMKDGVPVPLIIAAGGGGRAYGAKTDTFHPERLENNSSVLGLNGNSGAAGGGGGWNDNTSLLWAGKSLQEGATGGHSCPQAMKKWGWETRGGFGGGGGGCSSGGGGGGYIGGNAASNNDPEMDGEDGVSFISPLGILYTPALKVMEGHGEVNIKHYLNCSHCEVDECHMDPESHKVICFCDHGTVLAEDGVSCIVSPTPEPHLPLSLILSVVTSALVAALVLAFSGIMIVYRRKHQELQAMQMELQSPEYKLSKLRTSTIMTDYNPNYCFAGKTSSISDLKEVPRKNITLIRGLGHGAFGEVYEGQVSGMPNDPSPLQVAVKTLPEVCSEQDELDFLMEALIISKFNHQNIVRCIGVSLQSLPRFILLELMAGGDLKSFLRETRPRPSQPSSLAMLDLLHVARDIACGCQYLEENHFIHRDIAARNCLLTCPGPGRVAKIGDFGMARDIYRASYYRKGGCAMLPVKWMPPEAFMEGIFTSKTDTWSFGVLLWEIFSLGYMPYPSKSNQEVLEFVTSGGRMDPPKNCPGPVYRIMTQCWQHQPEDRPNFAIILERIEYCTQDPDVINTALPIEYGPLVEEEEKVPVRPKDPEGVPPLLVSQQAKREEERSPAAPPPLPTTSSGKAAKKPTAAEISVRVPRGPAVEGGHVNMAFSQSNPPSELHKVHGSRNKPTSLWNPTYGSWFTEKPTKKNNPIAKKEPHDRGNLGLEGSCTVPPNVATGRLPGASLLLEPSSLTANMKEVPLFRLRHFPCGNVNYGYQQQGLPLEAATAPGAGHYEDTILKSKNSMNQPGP

## CC(=O)O[C@H]1C(=O)[C@@]2(C)[C@H]([C@H](OC(=O)c3ccccc3)[C@]3(O)C[C@H](OC(=O)[C@H](O)[C@@H](NC(=O)c4ccccc4)c4ccccc4)C(C)=C1C3(C)C)[C@]1(OC(C)=O)CO[C@@H]1C[C@@H]2O [PACLITAXEL]
Homo sapiens
  Activity: inactive
[1]
  pIC50: < 5.30

## CCc1ccc2c(c1)c(=O)c(C(=O)Nc1ccc(Oc3ncnc4cc(OC)c(OC)cc34)c(F)c1)c(C)n2C
MDA-MB-231 [2]
  pIC50: < 5.30
MDA-MB-436
  pIC50: < 5.30
MDA-MB-453
  pIC50: < 5.30
[3]
  pIC50: 8.31
MDA-MB-231 [4]
  Activity: 56.88%
MDA-MB-231 [5]
  Activity: 12.03%
MDA-MB-231 [6]
  Activity: 26.91%
MDA-MB-231 [7]
  Activity: 52.76%
MDA-MB-231 [8]
  Activity: 16.56%
MDA-MB-231 [9]
  Activity: 24.87%
MDA-MB-231 [10]
  Activity: 61.26%
MDA-MB-231 [11]
  Activity: 9.32%
MDA-MB-231 [12]
  Activity: 27.64%
[13]
  inhibition: inactive
MDA-MB-231 [14]
  viability at 0.0333 µM: 94.9%
MDA-MB-231 [15]
  Activity: 1.8%
MDA-MB-231 [16]
  Activity: 3.01%
MDA-MB-231 [17]
  Activity: 0.29%
MDA-MB-231 [18]
  viability at 0.1 µM: 94.6%
MDA-MB-231 [19]
  Activity: 3.02%
MDA-MB-231 [20]
  Activity: 0.41%
MDA-MB-231 [21]
  Activity: 1.99%
MDA-MB-231 [22]
  viability at 0.3 µM: 95.1%
MDA-MB-231 [23]
  Activity: 3.11%
MDA-MB-231 [24]
  Activity: 0.15%
MDA-MB-231 [25]
  Activity: 1.66%
MDA-MB-231 [26]
  Activity: inactive
MDA-MB-231 [27]
  Activity: inactive
MDA-MB-231 [28]
  Activity: inactive
MDA-MB-231 [29]
  Activity: inactive
MDA-MB-231 [30]
  inhibition: inactive
MDA-MB-231 [31]
  inhibition: Active
